# Measurements published in patent US10669284B2, “Fused thiazolopyrimidine derivatives as MNKS inhibitors” (LIFEARC, priority 2015, dated 2020).
# Legend:
# [1] = biological target: T1, Full-length human MNK2 (Homo sapiens, UniProt Q9HBH9, T379D); assay: MNK2 biochemical IC50 assay (Caliper Mobility Shift Assay); settings: read-out: P(IC50) MNK2 (converted)
# T1 construct: GST (N); purchased Carna Biosciences 02-146; host or cells: baculovirus expression system
# Excerpt: (§1) The phosphorylated peptide product and unphosphorylated peptide substrate were detected using a Caliper Mobility Shift Assay using the Caliper LabChip EZ Reader II.
# (§2) The Caliper Mobility Shift Assay technology is based on the utilisation of a microfluidic chip to measure the conversion of a fluorescent non-phosphorylated peptide substrate to phosphorylated product by electrophoresis separation of substrate and product and detection via Laser-induced fluorescence. The LabChip EZ Reader software calculates the relative heights of substrate and product peaks and reports the peak ratio (Product peak(P) divided by the sum of Product peak(P) and Substrate peak(S)). The percent-conversion is calculated as 100×[(P/(P+S)]. All assays were set up to run in the linear phase with a maximum of 10 percent substrate conversion.
# (§3) These were N-terminal GST fusion proteins expressed in baculovirus expression system and purified by glutathione sepharose affinity chromatography. […] All other assay reagents were sourced from Sigma.
# (§4) The assay incubation times were adjusted depending on the concentration of ATP used. Assays were performed at low (50 uM) and high (1 mM) ATP. The low ATP values were selected to run at Km conditions for the standard assay to allow relative potencies to be compared across other kinases. The high ATP concentration was selected as representative of cellular ATP concentrations, and for an indication of ATP competition, where a significant shift (greater than half log) in apparent potency would be expected compared to Km conditions. All IC50 values reported are the average of at least two independent experiments.
# Reactions were performed as above using 10 nM MNK2 in the assay. Standard assays contained 50 uM ATP and high concentration ATP assays contained 1 mM ATP. […] All other conditions were the same.
# [2] = system: phosphorylation of eIF4E at ser209 in MV4.11 cell line; assay: MNK cellular activity phospho-eIF4E detection assay (Alphascreen Surefire); format: cell-based; settings: Homo sapiens; MV4.11 cell line, phospho-eIF4E (ser209) Alphascreen Surefire; read-out: P(IC50) elF4E (converted)
# Experimental: The assay detection is based on the formation of sandwich antibody complexes coupled to donor and acceptor beads. Excitation at 680 nm causes the transfer of a singlet oxygen species between donor and acceptor beads when they are in close proximity by binding to the analyte ([…]), which results in the emission of light at 520-620 nm.
# Cells were then lysed and the Alphascreen Surefire protocol followed according to manufacturer's recommendations. 8 ul Acceptor beads (1:50 dilution in kit activation buffer) was added to lysate, shaken 150 rpm for 2 min and incubated for 1.5 hr at room temperature. 3 ul Donor beads (1:20 dilution in kit dilution buffer) were then added, shaken 150 rpm for 2 min and incubated for a further 1.5 hr at room temperature after which the plates were read on Pherastar FS using Alphascreen optic module.
# Data were normalised relative to untreated DMSO only controls and curves repeated in duplicate within experiments. Data reported are averages of at least 2 independent experiments.
# [3] = biological target: T2, Full-length human MNK1 (Homo sapiens, UniProt Q9BUB5, T385D); assay: MNK1 biochemical IC50 assay (Caliper Mobility Shift Assay); settings: read-out: P(IC50) MNK1 (converted)
# T2 construct: GST (N); purchased Carna Biosciences 02-145; host or cells: baculovirus expression system
# Excerpt: as §1, §2, §3
# Compounds were serially diluted in DMSO to generate a 10-point half log dilution curve with a final top concentration of 100 uM in the assay. […] Compounds were pre-incubated with enzyme and peptide in reaction buffer for 30 mins prior to addition of ATP to initiate the reaction. Final assay concentrations were 3 nM MNK1, 2 uM peptide substrate, 50 uM ATP, 50 mM Hepes pH 7.0, 0.01% BSA, 10 mM MgCl2, 1 mM dithiothrietol.
# as §4
# T1 sequence (Q9HBH9 whole entry T379D): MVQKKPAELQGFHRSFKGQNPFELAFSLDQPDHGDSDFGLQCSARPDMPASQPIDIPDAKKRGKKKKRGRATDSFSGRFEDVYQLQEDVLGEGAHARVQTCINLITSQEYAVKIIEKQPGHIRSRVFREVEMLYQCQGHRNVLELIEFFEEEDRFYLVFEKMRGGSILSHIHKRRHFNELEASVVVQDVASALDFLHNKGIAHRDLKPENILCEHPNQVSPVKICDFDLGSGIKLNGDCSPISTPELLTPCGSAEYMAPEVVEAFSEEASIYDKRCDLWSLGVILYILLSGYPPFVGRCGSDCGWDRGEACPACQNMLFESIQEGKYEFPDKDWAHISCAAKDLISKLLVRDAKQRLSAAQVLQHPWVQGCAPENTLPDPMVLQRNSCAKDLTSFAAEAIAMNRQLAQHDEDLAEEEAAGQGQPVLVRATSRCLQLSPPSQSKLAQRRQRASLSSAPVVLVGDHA
# T2 sequence (Q9BUB5 1-424 isoform Q9BUB5-2 T344D): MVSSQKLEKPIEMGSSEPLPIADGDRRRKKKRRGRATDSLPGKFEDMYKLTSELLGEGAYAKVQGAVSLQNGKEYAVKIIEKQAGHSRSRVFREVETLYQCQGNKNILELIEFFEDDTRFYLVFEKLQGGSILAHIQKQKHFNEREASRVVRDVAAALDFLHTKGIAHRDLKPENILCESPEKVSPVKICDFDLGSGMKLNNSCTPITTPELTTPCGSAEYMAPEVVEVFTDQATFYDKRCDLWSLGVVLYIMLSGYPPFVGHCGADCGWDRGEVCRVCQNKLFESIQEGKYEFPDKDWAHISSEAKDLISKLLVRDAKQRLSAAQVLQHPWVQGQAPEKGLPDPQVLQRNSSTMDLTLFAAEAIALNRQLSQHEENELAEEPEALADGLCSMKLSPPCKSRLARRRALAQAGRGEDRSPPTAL
Structure (SMILES),IC50 [1],IC50 [2],IC50 [3]
"CC(C)Oc1cc(F)ccc1Nc1ncnc2sc(C(=O)N3CC4(CNC4)C3)nc12 [Example 7, 2,6-diazaspiro[3.3]heptan-2-yl-[7-(4-fluoro-2-isopropoxy-anilino)thiazolo[5,4-d]pyrimidin-2-yl]methanone]",251 nM,316 nM,251 nM
"CC(C)Oc1ncccc1Nc1ncnc2sc(C(=O)NCC3CCNCC3)nc12 [Example 55, 7-[(2-Isopropoxy-3-pyridyl)amino]-N-(4-piperidylmethyl)thiazolo[5,4-d]pyrimidine-2-carboxamide]",251 nM,316 nM,316 nM
"O=C(NCCN1CCCC1)c1nc2c(N3CCc4cc(F)ccc43)ncnc2s1 [Example 74, 7-(5-fluoroindolin-1-yl)-N-(2-pyrrolidin-1-ylethyl)thiazolo[5,4-d]pyrimidine-2-carboxamide]",5.01 nM,20 nM,6.31 nM
"O=C(NCC1CCNCC1)c1nc2c(N3CC(CO)c4ccccc43)ncnc2s1 (stereo not drawn) [Example 135, 7-[3-(Hydroxymethyl)indolin-1-yl]-N-(4-piperidylmethyl)thiazolo[5,4-d]pyrimidine-2-carboxamide]",7.94 nM,31.6 nM,10 nM
"CN(C)CCCNC(=O)c1nc2c(Nc3ccc(F)cc3O[C@H]3CCCOC3)ncnc2s1 [Example 17, N-[3-(dimethylamino)propyl]-7-[4-fluoro-2-[(3S)-tetrahydropyran-3-yl]oxy-anilino]thiazolo[5,4-d]pyrimidine-2-carboxamide]",100 nM,100 nM,126 nM
"CC(C)CCNC(=O)c1nc2c(N3CC(CCN)c4ccccc43)ncnc2s1 (stereo not drawn) [Example 165, 7-[3-(2-aminoethyl)indolin-1-yl]-N-isopentyl-thiazolo[5,4-d]pyrimidine-2-carboxamide]",10 nM,15.8 nM,10 nM
"CC(C)Oc1cc(F)ccc1Nc1ncnc2sc(C(=O)NC3CNC3)nc12 [Example 28, N-(azetidin-3-yl)-7-{[4-fluoro-2-(propan-2-yloxy)phenyl]amino}[1,3]thiazolo[5,4-d]pyrimidine-2-carboxamide]",79.4 nM,79.4 nM,126 nM
"O=C(NCC1CCNCC1)c1nc2c(Nc3ccc(F)cc3O[C@H]3CCOC3)ncnc2s1 [Example 54, 7-[4-fluoro-2-[(3S)-tetrahydrofuran-3-yl]oxy-anilino]-N-(4-piperidylmethyl)thiazolo[5,4-d]pyrimidine-2-carboxamide]",100 nM,200 nM,79.4 nM
"O=C(Nc1ccc(Nc2ncnc3sc(C(=O)NCC4CCNCC4)nc23)cc1)Nc1cccc(C(F)(F)F)c1 [Example 49, N-(4-piperidylmethyl)-7-[4-[[3-(trifluoromethyl)phenyl]carbamoylamino]anilino]thiazolo[5,4-d]pyrimidine-2-carboxamide]",63.1 nM,79.4 nM,158 nM
"CC(C)Oc1cc(F)ccc1Nc1ncnc2sc(C(=O)NCCCN(C)C)nc12 [Example 3, N-[3-(Dimethylamino)propyl]-7-(4-fluoro-2-isopropoxy-anilino)thiazolo[5,4-d]pyrimidine-2-carboxamide]",50.1 nM,50.1 nM,63.1 nM
"CN(C)CCCNC(=O)c1nc2c(Nc3ccc(F)cc3OC3CCCC3)ncnc2s1 [Example 22, 7-[2-(Cyclopentoxy)-4-fluoro-anilino]-N-[3-(dimethylamino)propyl]thiazolo[5,4-d]pyrimidine-2-carboxamide]",63.1 nM,63.1 nM,100 nM
"CN1CCN(C(=O)c2nc3c(N4CCc5cc(F)ccc54)ncnc3s2)CC1 [Example 65, [7-(5-fluoroindolin-1-yl)thiazolo[5,4-d]pyrimidin-2-yl]-(4-methylpiperazin-1-yl)methanone]",79.4 nM,251 nM,79.4 nM
"NCCC1CN(c2ncnc3sc(C(=O)NCCC(F)(F)F)nc23)c2ccccc21 (stereo not drawn) [Example 167, 7-[3-(2-aminoethyl)indolin-1-yl]-N-(3,3,3-trifluoropropyl)thiazolo [5,4-d]pyrimidine-2-carboxamide]",5.01 nM,15.8 nM,7.94 nM
"CC(C)Oc1ccccc1Nc1ncnc2sc(C(=O)NCCCN(C)C)nc12 [Example 23, N-[3-(Dimethylamino)propyl]-7-(2-isopropoxyanilino)thiazolo[5,4-d]pyrimidine-2-carboxamide]",63.1 nM,63.1 nM,100 nM
"Nc1nc2c(N3CCc4cc(F)ccc43)ncnc2s1 [Example 83, 7-(5-Fluoroindolin-1-yl)thiazolo[5,4-d]pyrimidin-2-amine]",39.8 nM,126 nM,31.6 nM
"CC(C)Oc1cc(F)ccc1Nc1ncnc2sc(C(=O)NCCC3CCN(C)CC3)nc12 [Example 37, 7-{[4-fluoro-2-(propan-2-yloxy)phenyl]amino}-N-[2-(1-methylpiperidin-4-yl)ethyl][1,3]thiazolo[5,4-d]pyrimidine-2-carboxamide]",39.8 nM,25.1 nM,39.8 nM

# Continued, values first:
IC50 [1],IC50 [2],IC50 [3],Structure (SMILES)
31.6 nM,25.1 nM,39.8 nM,"O=C(NC1CCOCC1)c1nc2c(N3CCc4cnccc43)ncnc2s1 [Example 43, 7-(2,3-Dihydro-1H-pyrrolo[3,2-c]pyridin-1-yl)-N-(tetrahydro-2H-pyran-4-yl)[1,3]thiazolo[5,4-d]pyrimidine-2-carboxamide]"
50.1 nM,50.1 nM,50.1 nM,"CC(C)Oc1cc(F)ccc1Nc1ncnc2sc(C(=O)NCC3CCN(C)CC3)nc12 [Example 36, 7-{[4-fluoro-2-(propan-2-yloxy)phenyl]amino}-N-[(1-methylpiperidin-4-yl)methyl][1,3]thiazolo[5,4-d]pyrimidine-2-carboxamide]"
79.4 nM,251 nM,63.1 nM,CN(C)CCNc1nc2c(N3CCc4cc(F)ccc43)ncnc2s1 [Example 86]
316 nM,316 nM,398 nM,"CC(C)Oc1cc(F)ccc1Nc1ncnc2sc(C(=O)N3CCC(CCO)CC3)nc12 [Example 11, [7-(4-fluoro-2-isopropoxy-anilino)thiazolo[5,4-d]pyrimidin-2-yl]-[4-(2 hydroxyethyl)-1-piperidyl]methanone]"
3.16 nM,15.8 nM,3.16 nM,"O=C(NCCCn1cccn1)c1nc2c(N3CCc4cc(F)ccc43)ncnc2s1 [Example 75, 7-(5-fluoroindolin-1-yl)-N-(3-pyrazol-1-ylpropyl)thiazolo[5,4-d]pyrimidine-2-carboxamide]"
31.6 nM,794 nM,20 nM,"O=C(NCC1CCNCC1)c1nc2c(Nc3ccc4[nH]ncc4c3)ncnc2s1 [Example 50, 7-(1H-indazol-5-ylamino)-N-(4-piperidylmethyl)thiazolo[5,4-d]pyrimidine-2-carboxamide]"
63.1 nM,25.1 nM,63.1 nM,"CN1CCN(CCC2CN(c3ncnc4sc(C(=O)NC5CCOCC5)nc34)c3ccc(F)cc32)CC1 (stereo not drawn) [Example 150, 7-[5-fluoro-3-[2-(4-methylpiperazin-1-yl)ethyl]indolin-1-yl]-N-tetrahydropyran-4-yl-thiazolo[5,4-d]pyrimidine-2-carboxamide]"
